We go through four compounds from patent US20230265151A1, “GIP/GLP1 CO-AGONIST COMPOUNDS” (priority 2020, published 2023).

Structures are written as SMILES. Like-named read-outs stand apart in the source and are kept apart here.

In experiment [1] the target is T1, human GIP receptor (hGIPR) (Homo sapiens, UniProt P48546).
T1 construct: expressed in transfected cells; crude membranes
T1 sequence (P48546 22-466): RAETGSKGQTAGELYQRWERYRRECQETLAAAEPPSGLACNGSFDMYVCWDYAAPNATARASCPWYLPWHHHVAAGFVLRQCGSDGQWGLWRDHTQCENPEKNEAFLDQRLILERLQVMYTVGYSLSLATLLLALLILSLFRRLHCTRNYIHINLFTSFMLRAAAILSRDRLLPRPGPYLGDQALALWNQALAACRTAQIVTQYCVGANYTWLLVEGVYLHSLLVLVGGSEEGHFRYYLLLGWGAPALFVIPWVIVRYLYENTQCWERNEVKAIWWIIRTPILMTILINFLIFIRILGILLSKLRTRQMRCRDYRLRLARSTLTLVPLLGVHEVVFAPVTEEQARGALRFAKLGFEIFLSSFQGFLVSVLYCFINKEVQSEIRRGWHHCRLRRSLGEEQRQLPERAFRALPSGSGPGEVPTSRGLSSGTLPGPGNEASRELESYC
The experiment is described as follows: [125I]-GIP binding, SPA with membranes of CHO cells expressing hGIPR. The note with it: human GIPR; geometric mean (SEM, n); read-out: Binding Affinity Ki, nM (SEM, n) hGIPR.

The next experiment deals with T2, hGIPR (Homo sapiens, UniProt P48546).
T2 construct: expressed in transfected cells
T2 sequence (P48546 22-466): T1 sequence (P48546 22-466)
The experiment is described as follows: Functional cAMP formation (HTRF) in HEK-293 clonal cells expressing hGIPR, 0.1% bovine casein, without or with 1.0% human serum albumin. The class given is cell-based. The note with it: for EC50: read-out: hGIPR EC50, nM (SEM, n); for Emax: read-out: hGIPR Emax, % ± SEM. The method, boiled down:
(§1)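 Cells were stimulated with peptide for 30 min at 37° C, then lysed in buffer carrying cAMP-d2 and anti-cAMP Eu3+-cryptate for a competitive HTRF read after at least 60 min at room temperature. The 665/620 nm ratio was converted to nM cAMP against a standard curve.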
In general terms: cAMP levels reflect the balance of adenylyl cyclase and phosphodiesterase activity.

Another experiment concerns the target T3, hGCGR (Homo sapiens, UniProt P47871).
T3 construct: expressed in transfected cells
In words: Functional cAMP formation (HTRF) in HEK-293 clonal cells expressing hGCGR, 0.1% bovine casein, without or with 1.0% human serum albumin. The class given is cell-based. The note with it: read-out: hGCGR EC50, nM (SEM, n). A digest of the protocol:
as §1

In another experiment the target is hGLP-1R (Homo sapiens, UniProt P43220). In words: Functional cAMP formation (HTRF) in HEK-293 clonal cells expressing hGLP-1R, 0.1% bovine casein, without or with 1.0% human serum albumin. The class given is cell-based. Set-up: expressed in transfected cells. The note with it: for EC50: read-out: hGLP-1R EC50, nM (SEM, n). The method, boiled down:
as §1

[2] abbreviates: 0.1% bovine casein and 1.0% human serum albumin, 37° C., geometric mean.
[3] abbreviates: HEK293, 0.1% bovine casein and 1.0% human serum albumin, 37° C., percent of maximal response to GIP(1-42)NH2.
Setting [4] is: HEK293, percent of maximal response to GIP(1-42)NH2, 37° C., 0.1% bovine casein, arithmetic mean.
Where [5] appears, read: cAMP, incubated at 37° C., 0.1% bovine casein (no human serum albumin), geometric mean.
[6] abbreviates: cAMP, 37° C., 0.1% bovine casein (no human serum albumin), geometric mean.
The mark [7] stands for this setting: cAMP, 37° C., 0.1% bovine casein and 1.0% human serum albumin, geometric mean (SEM, n).

T3 sequence (P47871 26-477): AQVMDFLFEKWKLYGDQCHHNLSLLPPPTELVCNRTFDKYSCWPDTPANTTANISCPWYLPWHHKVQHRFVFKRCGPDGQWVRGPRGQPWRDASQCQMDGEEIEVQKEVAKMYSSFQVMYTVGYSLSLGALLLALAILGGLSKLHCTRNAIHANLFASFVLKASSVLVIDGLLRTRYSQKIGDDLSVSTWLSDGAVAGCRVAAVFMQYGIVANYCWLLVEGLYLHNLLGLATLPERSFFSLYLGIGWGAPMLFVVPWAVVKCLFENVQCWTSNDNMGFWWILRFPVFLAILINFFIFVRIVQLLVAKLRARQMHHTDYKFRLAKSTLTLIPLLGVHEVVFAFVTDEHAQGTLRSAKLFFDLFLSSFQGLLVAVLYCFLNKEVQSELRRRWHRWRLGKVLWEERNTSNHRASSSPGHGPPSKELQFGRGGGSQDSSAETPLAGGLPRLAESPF
Chain of hGLP-1R (P43220 24-463): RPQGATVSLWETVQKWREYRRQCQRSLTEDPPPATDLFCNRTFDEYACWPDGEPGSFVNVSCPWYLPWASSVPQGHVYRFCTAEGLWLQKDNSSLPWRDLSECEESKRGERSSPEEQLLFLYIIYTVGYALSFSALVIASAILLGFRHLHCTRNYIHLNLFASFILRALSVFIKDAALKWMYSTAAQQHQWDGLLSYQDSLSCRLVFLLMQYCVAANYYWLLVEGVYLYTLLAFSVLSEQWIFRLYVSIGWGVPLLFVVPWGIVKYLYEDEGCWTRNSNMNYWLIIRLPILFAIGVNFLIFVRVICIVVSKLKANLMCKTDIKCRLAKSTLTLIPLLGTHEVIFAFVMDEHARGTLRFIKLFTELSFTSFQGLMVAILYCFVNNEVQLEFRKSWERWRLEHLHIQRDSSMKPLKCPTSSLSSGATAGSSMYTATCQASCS

By Ki is commonly meant the dissociation constant of the complex between target and ligand, obtained from inhibition or displacement. The term EC50 denotes the concentration that produces a half-maximal response. In general, Emax refers to the size of the effect at its maximum, as opposed to the concentration needed. As to `CC[C@H](C)[C@H](NC(=O)[C@H](CC(C)C)NC(=O)[C@](C)(Cc1ccc(O)cc1)NC(=O)[C@@H](CCC(=O)O)NC(=O)[C@@H](NC(=O)[C@H](Cc1ccccc1)NC(=O)[C@H](CCC(=O)O)NC(=O)C(C)(C)NC(=O)[C@H](CCC(N)=O)NC(=O)[C@H](C)NC(=O)[C@H](CCCCNC(=O)[C@@H](N)CCCCNC(=O)COCCOCCNC(=O)CC[C@H](NC(=O)CCCCCCCCCCCCC(=O)O)C(=O)O)NC(=O)[C@H](CCCN)NC(=O)[C@H](CC(=O)O)NC(=O)[C@H](CC(C)C)NC(=O)[C@](C)(CC(C)C)NC(=O)[C@@H](NC(=O)[C@H](CO)NC(=O)[C@H](Cc1ccncc1)NC(=O)[C@H](CC(=O)O)NC(=O)[C@H](CO)NC(=O)[C@@H](NC(=O)[C@](C)(Cc1ccccc1F)NC(=O)[C@@H](NC(=O)CNC(=O)[C@H](CCC(=O)O)NC(=O)C(C)(C)NC(=O)[C@@H](N)Cc1ccc(O)cc1)[C@@H](C)O)[C@@H](C)O)[C@@H](C)CC)[C@@H](C)CC)C(=O)N[C@@H](CCC(=O)O)C(=O)NCC(=O)NCC(=O)N[C@@H](CCCCNC(=O)[C@@H](N)CCCCNC(=O)COCCOCCNC(=O)CC[C@H](NC(=O)CCCCCCCCCCCCC(=O)O)C(=O)O)C(=O)N[C@@H](CO)C(=O)N[C@@H](CO)C(=O)NCC(=O)N[C@@H](C)C(=O)N1CCC[C@H]1C(=O)N1CCC[C@H]1C(=O)N1CCC[C@H]1C(=O)N[C@@H](CO)C(N)=O` [Example 36], in experiment [1], the Ki came to 0.103 nM. In addition, the EC50 at hGIPR (setting [2]) was 0.408 nM; at hGIPR (setting [5]), 0.0185 nM; at hGCGR (setting [2]), > 9950 nM; at hGCGR (setting [5]), > 9950 nM; at hGLP-1R (setting [2]), 10.9 nM. For the same compound, the Emax on hGIPR (setting [3]) amounted to 91.4 ± 0.667%; at hGIPR (setting [4]) it was 95.4 ± 2.02%.
`CC[C@H](C)[C@H](NC(=O)[C@H](CC(C)C)NC(=O)[C@](C)(Cc1ccc(O)cc1)NC(=O)[C@H](CCCCNC(=O)COCCOCCNC(=O)COCCOCCNC(=O)COCCOCCNC(=O)CC[C@H](NC(=O)CCCCCCCCCCCCC(=O)O)C(=O)O)NC(=O)[C@@H](NC(=O)[C@H](Cc1ccccc1)NC(=O)[C@H](CCCN)NC(=O)C(C)(C)NC(=O)[C@H](CCC(N)=O)NC(=O)[C@H](C)NC(=O)[C@H](CCC(N)=O)NC(=O)[C@H](CCCN)NC(=O)[C@H](CC(=O)O)NC(=O)[C@H](CC(C)C)NC(=O)[C@](C)(CC(C)C)NC(=O)[C@@H](NC(=O)C(C)(C)NC(=O)[C@H](Cc1ccncc1)NC(=O)[C@H](CC(=O)O)NC(=O)[C@H](CO)NC(=O)[C@@H](NC(=O)[C@](C)(Cc1ccccc1F)NC(=O)[C@@H](NC(=O)CNC(=O)[C@H](CCC(=O)O)NC(=O)C(C)(C)NC(=O)[C@@H](N)Cc1ccc(O)cc1)[C@@H](C)O)[C@@H](C)O)[C@@H](C)CC)[C@@H](C)CC)C(=O)N[C@@H](CCCCNC(=O)COCCOCCNC(=O)COCCOCCNC(=O)COCCOCCNC(=O)CC[C@H](NC(=O)CCCCCCCCCCCCC(=O)O)C(=O)O)C(=O)NCC(=O)NCC(=O)N1CCC[C@H]1C(=O)N[C@@H](CO)C(=O)N[C@@H](CO)C(=O)NCC(=O)N[C@@H](C)C(=O)N1CCC[C@H]1C(=O)N1CCC[C@H]1C(=O)N1CCC[C@H]1C(=O)N[C@@H](CO)C(N)=O` [Example 476]: in experiment [1], the Ki amounted to 0.0351 nM. In addition, the Emax stood at 81.8% on hGIPR (HEK293, cAMP, 37° C., 0.1% bovine casein and 1.0% human serum albumin, percent of maximal response to GIP(1-42)NH2); 114% on hGLP-1R (HEK293, cAMP, 37° C., 0.1% bovine casein, percent of maximal response to GLP-1(7-36)NH2, arithmetic mean, read-out: hGLP-1R Emax, % ± SEM). The EC50 is 0.00886 nM at hGIPR (setting [6]); 0.154 nM at hGIPR (setting [7]); > 9950 nM on hGCGR (setting [6]); > 9950 nM at hGCGR (setting [7]); 0.117 nM on hGLP-1R (setting [6]); 1.5 nM at hGLP-1R (setting [7]).
For the compound `CC[C@H](C)[C@H](NC(=O)[C@H](CC(C)C)NC(=O)[C@](C)(Cc1ccc(O)cc1)NC(=O)[C@@H](CCC(=O)O)NC(=O)[C@@H](NC(=O)[C@H](Cc1ccccc1)NC(=O)[C@H](CCC(=O)O)NC(=O)C(C)(C)NC(=O)[C@H](CCC(N)=O)NC(=O)[C@H](C)NC(=O)[C@H](CCCCNC(=O)COCCOCCNC(=O)COCCOCCNC(=O)CC[C@H](NC(=O)CCCCCCCCCCCCC(=O)O)C(=O)O)NC(=O)[C@H](CCCN)NC(=O)[C@H](CC(=O)O)NC(=O)[C@H](CC(C)C)NC(=O)[C@](C)(CC(C)C)NC(=O)[C@@H](NC(=O)[C@H](CO)NC(=O)[C@H](CCc1ccc(O)cc1)NC(=O)[C@H](CC(=O)O)NC(=O)[C@H](CO)NC(=O)[C@@H](NC(=O)[C@](C)(Cc1ccccc1F)NC(=O)[C@@H](NC(=O)CNC(=O)[C@H](CCC(=O)O)NC(=O)C(C)(C)NC(=O)[C@@H](N)Cc1ccc(O)cc1)[C@@H](C)O)[C@@H](C)O)[C@@H](C)CC)[C@@H](C)CC)C(=O)N[C@@H](CCC(=O)O)C(=O)NCC(=O)NCC(=O)N[C@@H](CCCCNC(=O)COCCOCCNC(=O)COCCOCCNC(=O)CC[C@H](NC(=O)CCCCCCCCCCCCC(=O)O)C(=O)O)C(=O)N[C@@H](CO)C(=O)N[C@@H](CO)C(=O)NCC(=O)N[C@@H](C)C(=O)N1CCC[C@H]1C(=O)N1CCC[C@H]1C(=O)N1CCC[C@H]1C(=O)N[C@@H](CO)C(N)=O` [Example 59], the Ki in experiment [1] was 0.171 nM. In addition, the Emax on hGIPR (setting [3]) is 90.3 ± 3.64%; at hGIPR (setting [4]), 89.2 ± 4.62%. In addition, the EC50 is 0.024 nM on hGIPR (setting [5]), > 9950 nM at hGCGR (setting [2]), > 9950 nM at hGCGR (setting [5]) and 0.202 nM at hGLP-1R (setting [5]).
As for `CCCCCCCCCCCCCCCC(=O)N[C@@H](CCC(=O)NCCOCCOCC(=O)NCCOCCOCC(=O)NCCCC[C@H](NC(=O)[C@H](CO)NC(=O)[C@@H]1CCCN1C(=O)[C@@H]1CCCN1C(=O)[C@@H]1CCCN1C(=O)[C@H](C)NC(=O)CNC(=O)[C@H](CO)NC(=O)[C@H](CO)NC(=O)[C@@H]1CCCN1C(=O)CNC(=O)CNC(=O)[C@H](CCC(=O)O)NC(=O)[C@@H](NC(=O)[C@H](CC(C)C)NC(=O)[C@](C)(Cc1ccc(O)cc1)NC(=O)[C@@H](CCC(=O)O)NC(=O)[C@@H](NC(=O)[C@H](Cc1ccccc1)NC(=O)[C@H](CCC(=O)O)NC(=O)C(C)(C)NC(=O)[C@H](CCC(N)=O)NC(=O)[C@H](C)NC(=O)[C@H](CCCCNC(=O)COCCOCCNC(=O)COCCOCCNC(=O)CC[C@H](NC(=O)CCCCCCCCCCCCCCC)C(=O)O)NC(=O)[C@H](CCCN)NC(=O)[C@H](CC(=O)O)NC(=O)[C@H](CC(C)C)NC(=O)[C@](C)(CC(C)C)NC(=O)[C@@H](NC(=O)[C@H](CO)NC(=O)[C@H](Cc1ccncc1)NC(=O)[C@H](CC(=O)O)NC(=O)[C@H](CO)NC(=O)[C@@H](NC(=O)[C@](C)(Cc1ccccc1F)NC(=O)[C@@H](NC(=O)CNC(=O)[C@H](CCC(=O)O)NC(=O)C(C)(C)NC(=O)[C@@H](N)Cc1ccc(O)cc1)[C@@H](C)O)[C@@H](C)O)[C@@H](C)CC)[C@@H](C)CC)[C@@H](C)CC)C(N)=O)C(=O)O` [Example 25], the Ki in experiment [1] was determined as 0.0293 nM. For the same compound, the EC50 on hGIPR (setting [2]) was 0.274 nM; at hGCGR (setting [2]), > 9950 nM; on hGCGR (setting [5]), > 9950 nM; at hGLP-1R (setting [2]), 1.11 nM. Further, the Emax at hGIPR (setting [3]) was determined as 94.3 ± 1.73%.
